The values that follow are results of earlier work, collected in patent US7094785B1, “Method of treating polycythemia vera” (Cornell Research Foundation, Inc., priority 2002, dated 2006).

In the series the test system is essential thrombocythemia or myelofibrosis.

Where a name gives a salt, the structure may show the parent alone.

`Cc1ccc(NC(=O)c2ccc(CN3CCN(C)CC3)cc2)cc1Nc1nccc(-c2cccnc2)n1` [imatinib mesylate, N-{5-[4-(4-methyl-piperazino-methyl)-benzoylamido]-2-methylphenyl}-4-(3-pyridyl)-2-pyrimidine-amine]: the “effectiveness in other myeloproliferative disorders” value is listed as “not effective”.
